Measurements from patent US8962627B2, “Oxime derivatives and their use as allosteric modulators of metabotropic glutamate receptors” (Prestwick Chemical, Inc., priority 2009, dated 2015).

Legend:
[1] = target: T1, human mGluR4 transiently over-expressed in HEK-293 cells (Homo sapiens, UniProt Q14833); experiment: Human mGluR4 positive allosteric modulator evaluation using Ca++ functional assay; format: cell-based; settings: for EC50: HEK-293 cells co-transfected with hmGluR4 and chimeric G protein, EC10 glutamate, intracellular calcium (Fluo4AM), read-out: mean EC50 of agonist/positive allosteric modulator activity on mGluR4
T1 construct: expressed in transfected cells; host or cells: HEK-293 cells, transient co-transfection by electroporation
Procedure, shortened: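 HEK-293 cells transiently co-transfected with hmGluR4 and a chimeric G protein, loaded with Fluo4AM; Ca2+ fluorescence read 485/525 nm. Compound alone read 60 s, then EC10 glutamate added and read 60 s more. EC50 fitted from 6–9 concentrations, duplicate, two independent runs.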

T1 sequence (Q14833 33-912): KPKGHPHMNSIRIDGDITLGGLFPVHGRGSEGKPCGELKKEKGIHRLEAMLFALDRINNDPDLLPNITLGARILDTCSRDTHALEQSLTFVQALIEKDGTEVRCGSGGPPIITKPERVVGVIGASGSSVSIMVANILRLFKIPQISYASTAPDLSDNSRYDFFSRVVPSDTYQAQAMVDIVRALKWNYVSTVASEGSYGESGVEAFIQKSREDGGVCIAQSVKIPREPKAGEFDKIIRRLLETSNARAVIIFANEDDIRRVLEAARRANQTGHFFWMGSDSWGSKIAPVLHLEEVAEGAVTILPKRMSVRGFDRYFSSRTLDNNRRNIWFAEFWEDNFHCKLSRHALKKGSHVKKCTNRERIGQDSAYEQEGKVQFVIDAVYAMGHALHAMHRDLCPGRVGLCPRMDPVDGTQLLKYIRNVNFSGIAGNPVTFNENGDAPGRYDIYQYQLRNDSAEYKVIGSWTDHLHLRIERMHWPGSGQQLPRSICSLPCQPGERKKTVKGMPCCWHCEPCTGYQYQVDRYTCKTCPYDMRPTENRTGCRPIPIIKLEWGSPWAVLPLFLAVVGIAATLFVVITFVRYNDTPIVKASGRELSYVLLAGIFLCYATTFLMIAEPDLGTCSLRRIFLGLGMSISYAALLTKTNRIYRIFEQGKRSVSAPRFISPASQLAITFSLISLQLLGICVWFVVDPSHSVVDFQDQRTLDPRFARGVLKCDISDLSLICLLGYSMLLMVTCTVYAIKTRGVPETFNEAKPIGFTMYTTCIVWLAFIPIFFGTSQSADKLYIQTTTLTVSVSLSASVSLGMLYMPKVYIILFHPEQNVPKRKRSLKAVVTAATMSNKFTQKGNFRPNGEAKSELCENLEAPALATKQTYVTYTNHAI

| melting point | EC50 [1] | PAM activity on mGluR4 ([1]; up to 100 μM) | Compound |
| --- | --- | --- | --- |
| > 225 °C (dec.) | < 1 µM |  | COC[C@@H]1CCCN1CCOc1ccc2oc(-c3cc4cccn4cn3)cc(=NO)c2c1.Cl [Example 96, 6-[2-((S)-2-methoxymethylpyrrolidin-1-yl)-ethoxy]-2-pyrrolo[1,2-c]pyrimidin-3-yl-chromen-4-one oxime, hydrochloride] |
| 266 to 269 °C | < 1 µM |  | ON=c1cc(-c2cc3ccccc3cn2)oc2ccc(Br)cc12 (mixture of isomers) [Example 4, 6-bromo-2-isoquinolin-3-yl-chromen-4-one oxime] |
| 245 to 247 °C | < 5 µM |  | Cc1ccc2cnc(-c3cc(=NO)c4ccccc4o3)cc2c1 (mixture of isomers) [Example 15, 2-(6-methyl-isoquinolin-3-yl)-chromen-4-one oxime] |
| > 260 °C (dec.) | < 5 µM |  | Cl.ON=c1cc(-c2cc3cccn3cn2)oc2ccc(OCCN3CCCC3)cc12 [Example 87, 6-(2-Pyrrolidin-1-yl-ethoxy)-2-pyrrolo[1,2-c]pyrimidin-3-yl-chromen-4-one oxime, hydrochloride] |
| 240 to 243 °C | < 1 µM |  | COc1cccc2oc(-c3cc4cccn4cn3)cc(=NO)c12 [Example 139, 5-Methoxy-2-pyrrolo[1,2-c]pyrimidin-3-yl-chromen-4-one oxime] |
| 223 to 225 °C | < 5 µM |  | COCCOc1ccc2c(=NO)cc(-c3cc4ccccc4cn3)oc2c1 (mixture of isomers) [Example 57, 2-isoquinolin-3-yl-7-(2-methoxy-ethoxy)-chromes-4-one oxime] |
| 248 to 251 °C | < 5 µM |  | ON=c1cc(-c2cc3ccccc3cn2)oc2cc(C#Cc3ccccn3)ccc12 [Example 24, 2-isoquinolin-3-yl-7-(pyridin-2-yl-ethynyl)-chromen-4-one oxime] |
| 208 to 211 °C |  | no PAM activity | ON=c1cc(-c2ccncn2)oc2ccccc12 [Example 80, 2-Pyrimidin-4-yl-chromen-4-one oxime] |
| > 250 °C (dec.) | < 1 µM |  | Cl.ON=c1cc(-c2cc3sccc3cn2)oc2ccc(OCCN3CCCC(F)(F)C3)cc12 [Example 131, 6-[2-(3,3-Difluoro-piperidin-1-yl)-ethoxy]-2-thieno[3,2-c]pyridin-6-yl-chromen-4-one oxime, hydrochloride] |
| 200 to 205 °C | < 1 µM |  | Cl.ON=c1cc(-c2cc3cccn3cn2)oc2cccc(OCCN3CCOCC3)c12 [Example 156, 5-(2-Morpholin-4-yl-ethoxy)-2-pyrrolo[1,2-c]pyrimidin-3-yl-chromen-4-one oxime, hydrochloride] |
| 222 to 225 °C | < 1 µM |  | CC1CN(CCOc2ccc3oc(-c4cc5sccc5cn4)cc(=NO)c3c2)CC(C)O1.Cl (stereo not drawn) [Example 132, 6-[2-(2,6-Dimethyl-morpholin-4-yl)-ethoxy]-2-thieno[3,2-c]pyridin-6-yl-chromen-4-one oxime, hydrochloride] |
| 270 to 275 °C (dec.) | < 5 µM |  | Cn1ccc2cc(-c3cc(=NO)c4ccccc4o3)ncc21 [Example 77, 2-(1-Methyl-1H-pyrrolo[2,3-c]pyridin-5-yl)-chromen-4-one oxime] |
| 210 to 212 °C | < 1 µM |  | CCc1ccc2oc(-c3cc4ccccc4cn3)cc(=NO)c2c1 [Example 37, 6-ethyl-2-isoquinolin-3-yl-chromen-4-one oxime] |
| 247 to 249 °C | < 1 µM |  | ON=c1cc(-c2cc3ccccc3cn2)oc2ccccc12 (mixture of isomers) [Example 1, 2-isoquinolin-3-yl-chromen-4-one oxime] |
| > 210 °C (dec.) | < 1 µM |  | Cl.Cl.ON=c1cc(-c2cc3cccn3cn2)oc2ccc(OCCN3CCC(N4CCCC4)CC3)cc12 [Example 118, 6-[2-(4-pyrrolidin-1-yl-piperidin-1-yl)-ethoxy]-2-pyrrolo[1,2-c]pyrimidin-3-yl-chromen-4-one oxime, dihydrochloride] |
